Source: the CheMixHub viscosity set

Assay: xn = mol fraction of the nth substance listed

Clc1cccc2ccccc12 + COc1ccccc1
viscosity [mPa·s], 101.33 kPa
Conditions	x1 = 0.0985	x1 = 0.1969	x1 = 0.2977	x1 = 0.3974	x1 = 0.4997	x1 = 0.5959	x1 = 0.6962	x1 = 0.7827	x1 = 0.8985
298.15 K	1.025	1.116	1.262	1.409	1.568	1.72	1.896	2.096	2.425
303.15 K	0.946	1.045	1.159	1.291	1.43	1.566	1.724	1.891	2.18
308.15 K	0.878	0.966	1.069	1.185	1.312	1.431	1.57	1.717	1.973

Clc1ccccc1 + COc1ccccc1
Conditions	viscosity [mPa·s]
293.15 K, 101.33 kPa, x2 = 0.0976	0.8705
293.15 K, 101.33 kPa, x2 = 0.1922	0.8967
293.15 K, 101.33 kPa, x2 = 0.2893	0.9253
293.15 K, 101.33 kPa, x2 = 0.3873	0.9512
293.15 K, 101.33 kPa, x2 = 0.493	0.9898
293.15 K, 101.33 kPa, x2 = 0.5987	0.967
293.15 K, 101.33 kPa, x2 = 0.7059	1.007
293.15 K, 101.33 kPa, x2 = 0.7916	1.072
293.15 K, 101.33 kPa, x2 = 0.905	1.107
298.15 K, 101 kPa, x2 = 0.0994	0.7921
298.15 K, 101 kPa, x2 = 0.2	0.8143
298.15 K, 101 kPa, x2 = 0.2957	0.8336
298.15 K, 101 kPa, x2 = 0.3982	0.8576
298.15 K, 101 kPa, x2 = 0.5028	0.88
298.15 K, 101 kPa, x2 = 0.6002	0.9024
298.15 K, 101 kPa, x2 = 0.7006	0.9275
298.15 K, 101 kPa, x2 = 0.7995	0.9474
298.15 K, 101 kPa, x2 = 0.8997	0.9779
298.15 K, 101.33 kPa, x2 = 0.0976	0.8217
298.15 K, 101.33 kPa, x2 = 0.1922	0.8474
298.15 K, 101.33 kPa, x2 = 0.2893	0.8642
298.15 K, 101.33 kPa, x2 = 0.3873	0.8824
298.15 K, 101.33 kPa, x2 = 0.493	0.9356
298.15 K, 101.33 kPa, x2 = 0.5987	0.9051
298.15 K, 101.33 kPa, x2 = 0.7059	0.9242
298.15 K, 101.33 kPa, x2 = 0.7916	0.9965
298.15 K, 101.33 kPa, x2 = 0.905	1.037
303.15 K, 101 kPa, x2 = 0.0864	0.7392
303.15 K, 101 kPa, x2 = 0.0994	0.7495
303.15 K, 101 kPa, x2 = 0.1933	0.7667
303.15 K, 101 kPa, x2 = 0.2	0.7657
303.15 K, 101 kPa, x2 = 0.2875	0.79
303.15 K, 101 kPa, x2 = 0.2957	0.785
303.15 K, 101 kPa, x2 = 0.3805	0.8112
303.15 K, 101 kPa, x2 = 0.3982	0.8026
303.15 K, 101 kPa, x2 = 0.4904	0.8348
303.15 K, 101 kPa, x2 = 0.5028	0.8232
303.15 K, 101 kPa, x2 = 0.5826	0.8538
303.15 K, 101 kPa, x2 = 0.6002	0.8438
303.15 K, 101 kPa, x2 = 0.6914	0.8755
303.15 K, 101 kPa, x2 = 0.7006	0.8635
303.15 K, 101 kPa, x2 = 0.779	0.8922
303.15 K, 101 kPa, x2 = 0.7995	0.8808
303.15 K, 101 kPa, x2 = 0.8905	0.9132
303.15 K, 101 kPa, x2 = 0.8997	0.9091
308.15 K, 101 kPa, x2 = 0.0994	0.7047
308.15 K, 101 kPa, x2 = 0.2	0.7212
308.15 K, 101 kPa, x2 = 0.2957	0.7354
308.15 K, 101 kPa, x2 = 0.3982	0.7535
308.15 K, 101 kPa, x2 = 0.5028	0.7693
308.15 K, 101 kPa, x2 = 0.6002	0.7866
308.15 K, 101 kPa, x2 = 0.7006	0.8038
308.15 K, 101 kPa, x2 = 0.7995	0.8201
308.15 K, 101 kPa, x2 = 0.8997	0.8444
313.15 K, 101 kPa, x2 = 0.0994	0.6642
313.15 K, 101 kPa, x2 = 0.2	0.6768
313.15 K, 101 kPa, x2 = 0.2957	0.6921
313.15 K, 101 kPa, x2 = 0.3982	0.7064
313.15 K, 101 kPa, x2 = 0.5028	0.7227
313.15 K, 101 kPa, x2 = 0.6002	0.7366
313.15 K, 101 kPa, x2 = 0.7006	0.7511
313.15 K, 101 kPa, x2 = 0.7995	0.7649
313.15 K, 101 kPa, x2 = 0.8997	0.7855
